According to patent US6903104B2, “Indol-3-YL-2-oxoacetamide compounds and methods of use thereof” (National Health Research Institutes, priority 2001, dated 2005):

Key:
[1] = system: murine leukemic P388 cells; assay: In vivo anticancer activity, murine leukemic P388 model; set-up: species or system DBA/2J mice; conditions: maximal tolerated dose, 10 mg/kg, intravenously; mean±sd
Protocol: The in vivo anticancer activities of the compounds are evaluated by the following murine leukemic P388 model. Inbred female DBA/2J mice of 4-5 week-old were purchased from the Charles River Laboratories Inc., Wilmington, Mass., USA and the National Laboratory Animals Breeding and Research Center, Taipei, Taiwan, ROC. Murine leukemic P388 cells are purchased from the Japanese Collection of Research Bioresources, Japan. P388 cells are cultured and propagated in RPMI1640 medium supplemented with 50 μM 2-mercaptoethanol and 10% fetal bovine serum. Mice at the age of 6 weeks were grouped as the treatment, negative control and positive control groups at 7 to 8 mice per group. All mice are intravenously inoculated with the P388 cells at one million per mouse one day before the treatments initiated. Compounds of this invention are dissolved in dimethyl sulfoxide (DMSO) and then diluted in 0.5% carboxymethyl cellulose with the final concentration of DMSO less than 0.5%. Different treatment groups are orally given (P.O.), respectively, with compounds of different doses for a pharmacological dose-response relationship. Mice of the negative control group are treated with the dosing vehicle, 0.5% carboxymethyl cellulose. Doxorubicin of the maximal tolerated dose, 10 mg/kg, is given intravenously as an experimental positive control. The cancer cell-inoculated animals are monitored twice daily. The time on which 50% of the P388-inoculated mice is still surviving is defined as the medium survival time and is used to calculate the percentage (normalized to the medium survival time of the control group) of increased in life span after treatment, which is then served as the index of treatment response.

[2] = system: nasopharyngeal HONE1 cancer cells; assay: In vitro cytotoxicity MTS assay, nasopharyngeal HONE1; type: cell-based, human; conditions: 72 hours
Protocol: (§1) A panel of human cancer cells, gastric NUGC3 and HR, nasopharyngeal HONE1, hepatocellular HEP G2 and HA-22T, colorectal DLD1, lung A549, prostate PC3, breast MCF7 and its adriamycin-resistant MCF7/ADR subline, uterus MES-SA and its adriamycin-resistant MES-SA/Dx5 subline, is purchased from Food Industry Research and Development Institute, Hsinchu, Taiwan R.O.C. or American Type Culture Collection, Manassas, Va. U.S.A., are used in in vitro cytotoxicity assays. The human cells are seeded at a cell density of 3000 or 4500 cells/100 μl/well in 96-well flat-bottom plates and incubated for 24 hours at 37° C. in a 5% CO2 incubator. The testing compounds are dissolved in dimethyl sulfoxide (DMSO) and further diluted into the culture medium for treatments of human cancer cells in vitro. The drug-containing media has a final DMSO concentration of ≦0.3%. The compounds of this invention are prepared in culture media for testing at a range of concentrations from 10, 1, 0.1, 0.01 to 0.001 μM. Each compound solution is (200 μl/well in duplicate) in the cell plates and is treated for 72 hours at 37° C., 5% CO2 in an incubator. Actinomycin D at 5 μM and 0.3% DMSO are used as the positive and vehicle controls, respectively. A colorimetric assay using 3-(4,5-dimethylthiazol-2-yl)-5-(3-carboxymethoxyphenyl)-2-(4-sulfophenyl)-2H-tetrazolium (MTS) and phenazine methosulfate (PMS) is used to determine the potency of the compounds. This assay measures cell viability based on the cellular activity in conversion of a tetrazolium salt into a colored soluble formazan product. The optical density (OD) values are measured at 490 nm with a 1420 multilabel counter VICTOR® from Wallac, Turku, Finland. All of the measured values are subtracted with that of the blank control wells without cells before further calculations. The efficacy data are expressed as a percentage normalized to the vehicle controls as calculated in the following formulae. Inhibitory potency (% of vehicle control)=[(OD490compound−OD490blank)/(OD490vehicle−OD490blank)]×100%. The concentration (IC50) of a test compound that inhibits 50% of the cellular activity is determined.

[3] = system: hepatocellular HEP G2 cancer cells; assay: In vitro cytotoxicity MTS assay, hepatocellular HEP G2; type: cell-based, human; conditions: 72 hours
Protocol: as §1

[4] = system: hepatocellular HA-22T cancer cells; assay: In vitro cytotoxicity MTS assay, hepatocellular HA-22T; type: cell-based, human; conditions: 72 hours
Protocol: as §1

[5] = system: colorectal DLD1 cancer cells; assay: In vitro cytotoxicity MTS assay, colorectal DLD1; type: cell-based, human; conditions: 72 hours
Protocol: as §1

[6] = system: adriamycin-resistant MCF7/ADR subline; assay: In vitro cytotoxicity MTS assay, adriamycin-resistant MCF7/ADR; type: cell-based, human; conditions: 72 hours
Protocol: as §1

[7] = system: gastric NUGC3 cancer cells; assay: In vitro cytotoxicity MTS assay, gastric NUGC3; type: cell-based, human; conditions: 72 hours
Protocol: as §1

breast MCF7 cancer cells = assay: In vitro cytotoxicity MTS assay, breast MCF7; type: cell-based, human; conditions: 72 hours
Protocol: as §1

gastric HR cancer cells = assay: In vitro cytotoxicity MTS assay, gastric HR; type: cell-based, human; conditions: 72 hours
Protocol: as §1

[8] = system: rat aorta endothelial cells; assay: Rat aorta tube formation assay (angiogenesis inhibition); type: cell-based, Spraque-Dawley rats; set-up: key: Noninhibitors are indicated by the symbol (−), meaning that the extent of endothelial cell growth is essentially at the same level as that of the control; The most potent inhibitors receive a score of (+++++), indicating essentially no measurable endothelial cell growth; conditions: final conc. 0.3 μg/ml, 5 days
Protocol: The procedures are modified from previous reports (Burbridge and West 2001; Bauer et al. 2000; Nicosai and Ottinetti 1990a) and described as follows. Male Spraque-Dawley rats of 6-8 weeks old are purchased from the National Laboratory Animal Breeding and Research Center (Taipei, Taiwan). The animals are anesthetized with urethane (2 g/kg, intraperitoneal) and the thoracic aortas are quickly harvested in a laminar flow hood. The aortas are rinsed with ice-cold normal saline with 10 μg/ml gentamicin and the attached fibroadipose tissues are removed using micro-dissection scissors. The aortas are cross-sectioned into rings of 1 mm in thickness. A mixture of Matrigel®, purchased from BD Biosciences, solution and the EBM-II medium, purchased from BioWhittaker Inc., (1:1) with 2% FBS, 0.25 mg/ml, amphotericin B and 10 μg/ml gentamicin is prepared and added at 100 μl to each well of a 48-well plate. The mixture is allowed to gel at 37° C. Aorta rings are then placed onto the gelled matrix and embedded in an additional 150 μl per well of the mixture solution and allowed to gel at 37° C. The aorta rings are then covered with 125 μl of the EGM-II medium and incubated overnight in humidified incubator with 5% CO2/95% air at 37° C. After removal of the EGM-II from the established aorta cultures, the compound-containing media are applied at 300 μl per well to the cultures and then incubated in 5% CO2/95% air at 37° C. for 5 days. The cultures are then subject to the 3-[4,5-dimethylthiazol-2-yl]-2,5 diphenyl-2H-tetrazolium bromide (MTT) or 3-(4,5-dimethylthiazol-2-yl)-5-(3-carbomethoxyphenyl)-2H-tetrazolium (MTS) assay and OD490 nm values measured. The testing compounds are dissolved in dimethyl sulfoxide (DMSO) and prepared in EBM-II media with at a final concentration of DMSO less than 0.1%.
The capillary-like, tube structure of the outgrown rat aorta endothelial cells is easily visualized by MTT staining. The medium on top of the matrix is removed from the established aorta ring cultures. MTT solution of 5 mg/ml in saline is added to the cultures at 100 μl/well and the cultures are incubated in a CO2 incubator at 37° C. for 24 hr. The stained cultures are then examined under a microscope DMIRB from Leica and photos taken with a digital camera.
Inhibition activity is also assessed in the following manner. The reductive reaction of MTS initiated by the viable cellular mitochondrial activity is used as a basis for the measurement of cell viability (Cory et al. 1991; Gieni et al. 1995). To the rat aorta ring cultures 300 μl of a solution containing 100 μg MTS and 1 μg, phenazine methosulfate is added per well and incubated in 5% CO2/95% air at 37° C. for 24 hr. During the incubation, MTS is converted to formazan product. At the end of incubation, the solution overlaying the gel is well-mixed and 100 μl aliquots are transferred into a 96-well plate for measurement of OD490 nm with a spectrophotometer VICTOR™-II from Wallac Oy.
The compounds listed in Table 3 are screened for angiogenesis inhibition. The control compound, ASTA, is D-24851, N-[pyridin-4-yl]-[1-(4-chlorobenzyl)-indol-3-yl]-glyoxylic acid amide. Noninhibitors are indicated by the symbol (−), meaning that the extent of endothelial cell growth is essentially at the same level as that of the control.

Compound	increased of life span [1] [%]	IC50 [2] [nM]	IC50 [3] [nM]	IC50 [4] [nM]	IC50 [5] [nM]	IC50 [6] [nM]	IC50 [7] [nM]	IC50 (breast MCF7 cancer cells) [nM]	IC50 (gastric HR cancer cells) [nM]	Inhibition Score [8]
COc1cccc2c1C(=O)c1c(O)c3c(c(O)c1C2=O)C[C@@](O)(C(=O)CO)C[C@@H]3O[C@H]1C[C@H](N)[C@H](O)[C@H](C)O1 [doxorubicin, reference compound]	119±18									
N#Cc1ccc(Cn2cc(C(=O)C(=O)NCCCCCCOc3ccc(Cl)cc3)c3ccccc32)cc1 [Compound 43]		31	713	200	534	412	134	856	291	
O=C(Nc1cc(-c2ccc(Cl)cc2)no1)C(=O)c1cn(Cc2ccc(Cl)cc2)c2ccccc12 [Compound 38]		487	3460	2240	3720	4080	2010	4260	2980	−
Cc1cc(Cn2cc(C(=O)C(=O)Nc3ccc4ncccc4c3)c3ccccc32)on1 [Compound 59]		34	613	115	658	300	262	678	294	+++++
N#Cc1ccc(Cn2cc(C(=O)C(=O)Nc3ccc(I)cc3)c3ccccc32)cc1 [Compound 13]		98	6310	356	846	597	431	577	396	+++++
COc1ccc(NC(=O)C(=O)c2cn(Cc3ccccc3C#N)c3ccccc23)cc1 [Compound 32]		928	4770	1910	5650	5290	4850	5180	2250	+++++
Cc1cc(NC(=O)C(=O)c2cn(Cc3ccc(C#N)cc3)c3ccc(Br)cc23)sn1 [Compound 24]		401	3590	2840	5800	2550	1720	7650	5460	−
